Assay results published in patent publication US11679107B2 (Eisai R&D Management Co., Ltd., priority 2018, dated 2023).
Read-outs that look alike come from different tables or passages of the source.

Experiments:
[1] = system: Panc 05.04 cells (SF3b K700E mutant); test: Cell proliferation and viability, CellTiter-Glo, 72 hours; assay type: cell-based; conditions: for GI50: geometric mean
In short: (§1)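 Cells grown in RPMI-1640 with 10% FBS (Panc 05.04 with added insulin, 15% FBS total) were exposed to an 11-point half-log dilution, typically 10 μM–100 pM, at 0.1% DMSO for 72 h at 37 °C. ATP content was read by CellTiter-Glo luminescence. Percent inhibition was set against a time-zero plate and DMSO vehicle wells, on a −100% (cidal) to 100% (uninhibited growth) scale.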

[2] = system: NCI-H1568 cells (high MCL1); test: as above; assay type: cell-based; conditions: for GI50: geometric mean
In short: as §1

[3] = system: Ad2 variant pre-mRNAs spliced in HeLa S3 nuclear extracts; test: In vitro splicing assay (IVS), RT-qPCR of spliced product; assay type: biochemical; conditions: for IC50: geometric mean; for Ratio Ad2.1/2.2: ratio of IVS IC50 Ad2.1 to Ad2.2
In short: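 Ad2 variant pre-mRNA (2 ng) with FTZΔi control RNA in HeLa S3 nuclear extract (8 μg) was pre-incubated with compound or DMSO for 15 min at 30 °C. Splicing ran 90 min at 30 °C after adding 0.5 mM ATP, creatine phosphate and MgCl2. Spliced product was quantified by TaqMan RT-qPCR, normalized to DMSO, and curve-fitted.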

[4] = biological target: T1, SF3b complexes (Homo sapiens, UniProt O75533+Q7RTV0); test: Scintillation proximity assay (SPA) with [3H]-labelled pladienolide probe; assay type: binding; conditions: SF3B1 (WT); geometric mean; read-out: SPA-ATS GMean IC50 (nM) SF3B1 (WT)
T1 construct: endogenous in cells; host or cells: Nuclear extracts; A HeLa S3 extract preparation is described for the in vitro splicing assay
In short: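 SF3b complexes captured from nuclear extracts on anti-SF3B1 antibody SPA beads; test compounds pre-incubated 30 min before 2.5 nM [3H]-pladienolide probe added, then 30 min incubation. Bound probe read by scintillation; values from non-linear regression of concentration–response curves.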

[5] = PANC0504.1 cells, 72 h, −100% cidal, 0% static, 100% maximal growth
[6] = Panc 05.04, read-out: CTGlo-ATS GMean GI50 (nM) 72 h PANC0504.1, PANC0504.1 cells, 72 h
[7] = NCI-H1568, read-out: CTGlo-ATS GMean GI50 (nM) 72 h NCIH1568.1, NCIH1568.1 cells, 72 h
[8] = NCIH1568.1 cells, 72 h, −100% cidal, 0% static, 100% maximal growth
[9] = Ad2.1 pre-mRNA substrate, read-out: qPCR-IVS-ATS GMean IC50 (nM) Ad2.1
[10] = Ad2.2 pre-mRNA substrate, read-out: qPCR-IVS-ATS GMean IC50 (nM) Ad2.2
[11] = 72 h, PANC0504.1, -100% = cidal, 0% = static, 100% = uninhibited growth
[12] = 72 h, NCIH1568.1, -100% = cidal, 0% = static, 100% = uninhibited growth
[13] = Panc 05.04, 72 h, read-out: CTGlo-ATS GMean GI50 (nM) 72 h PANC0504.1, PANC0504.1 cells, 72 h
[14] = NCI-H1568, 72 h, read-out: CTGlo-ATS GMean GI50 (nM) 72 h NCIH1568.1, NCIH1568.1 cells, 72 h
[15] = Panc 05.04, read-out: CTGlo-ATS GMean GI50 (nM) 72 h PANC0504.1, 72 h, PANC0504.1
[16] = NCI-H1568, read-out: CTGlo-ATS GMean GI50 (nM) 72 h NCIH1568.1, 72 h, NCIH1568.1

SMILES | CTGlo-ATS Mean MinResponse % 72 h PANC0504.1 [1, 5] | GI50 [1, 6] | GI50 [2, 7] | CTGlo-ATS Mean MinResponse % 72 h NCIH1568.1 [2, 8] | IC50 [3, 9] | IC50 [3, 10] | IC50 [4] | CTGlo-ATS Mean MinResponse % 72 h PANC0504.1 [1, 11] | GI50 ([1]; Panc 05.04, 72 h, read-out: CTGlo-ATS GMean GI50 (nM) 72 h PANC0504.1, 72 h, PANC0504.1) | CTGlo-ATS Mean MinResponse % 72 h NCIH1568.1 [2, 12] | GI50 ([2]; NCI-H1568, 72 h, read-out: CTGlo-ATS GMean GI50 (nM) 72 h NCIH1568.1, 72 h, NCIH1568.1) | Ratio Ad2.1/2.2 [3] | GI50 [1, 13] | GI50 [2, 14] | GI50 [1, 15] | GI50 [2, 16] | GI50 ([1]; read-out: CTGlo-ATS GMean GI50 (nM) 72 h PANC0504.1, PANC0504.1 cells, 72 h) | GI50 ([2]; read-out: CTGlo-ATS GMean GI50 (nM) 72 h NCIH1568.1, NCIH1568.1 cells, 72 h)
C/C(=C\c1ccnc(N2CCOCC2)c1)[C@H]1OC(=O)C[C@H](O)CC[C@H](C)[C@@H](OC(=O)N2CCN(C)CC2)/C=C/[C@@H]1C [Compound 6] | −88.664% | 15.7 nM | 29.1 nM | −17.149% | > 25000 nM | 75.3 nM | 8.85 nM |  |  |  |  |  |  |  |  |  |  | 
COCC(=O)N1CCN(c2cc(F)cc(/C=C(\C)[C@H]3OC(=O)C[C@H](O)CC[C@H](C)[C@@H](OC(=O)N4CCN(C)CC4)/C=C/[C@@H]3C)c2)CC1 [Compound 108] | −82.618% | 3.31 nM | 2.47 nM | −79.118% | 16.8 nM | 14.3 nM | 2.03 nM |  |  |  |  |  |  |  |  |  |  | 
C/C(=C\c1cc(F)c2cnn(CC3CC3)c2c1)[C@H]1OC(=O)C[C@H](O)CC[C@H](C)[C@@H](OC(=O)N2CCN(C)CC2)/C=C/[C@@H]1C [Compound 87, [(2S,3S,4E,6R,7S,10R)-2-[(E)-1-[1-(cyclopropylmethyl)-4-fluoroindazol-6-yl]prop-1-en-2-yl]-10-hydroxy-3,7-dimethyl-12-oxo-1-oxacyclododec-4-en-6-yl] 4-methylpiperazine-1-carboxylate] | −79.550% | 4.19 nM | 3.68 nM | −85.463% | 62.7 nM | 27 nM | 4.98 nM |  |  |  |  |  |  |  |  |  |  | 
C/C(=C\c1cc(F)cc(N2CCN(C(=O)Cn3cccn3)CC2)c1)[C@H]1OC(=O)C[C@H](O)CC[C@H](C)[C@@H](OC(=O)N2CCNCC2)/C=C/[C@@H]1C [Compound 235, [(2S,3S,4E,6R,7S,10R)-2-[(E)-1-[3-fluoro-5-[4-(2-pyrazol-1-ylacetyl)piperazin-1-yl]phenyl]prop-1-en-2-yl]-10-hydroxy-3,7-dimethyl-12-oxo-1-oxacyclododec-4-en-6-yl] piperazine-1-carboxylate] |  |  |  |  | 16 nM | 15.1 nM | 5.56 nM | −84.459% | 1.94 nM | −84.925% | 2.35 nM | 1.057 |  |  |  |  |  | 
C/C(=C\c1cc(F)c2cn(CC3CC3)nc2c1)[C@H]1OC(=O)C[C@H](O)CC[C@H](C)[C@@H](OC(=O)N2CCN(C)CC2)/C=C/[C@@H]1C [Compound 99] | −69.788% | 78 nM | 93.2 nM | −73.818% | > 25000 nM | 156 nM | 4.14 nM |  |  |  |  |  |  |  |  |  |  | 
C/C(=C\c1cc(F)c2cnn(C)c2c1)[C@H]1OC(=O)C[C@H](O)CC[C@H](C)[C@@H](OC(=O)N2CCN(C)CC2)/C=C/[C@@H]1C [Compound 101] | −94.474% |  |  | −64.073% | 1810 nM | 4.13 nM | 1.1 nM |  |  |  |  |  | 9.78 nM | 7.68 nM |  |  |  | 
CC(=O)N1CCC(n2nnc3c(F)cc(/C=C(\C)[C@H]4OC(=O)C[C@H](O)CC[C@H](C)[C@@H](OC(=O)N5CCN(C)CC5)/C=C/[C@@H]4C)cc32)CC1 [Compound 160] | −82.399% | 1.15 nM | 0.896 nM | −86.403% | 4.68 nM | 4.69 nM | 1.65 nM |  |  |  |  |  |  |  |  |  |  | 
C/C(=C\c1cc(F)cc(N2CCO[C@H](CO)C2)c1)[C@H]1OC(=O)C[C@H](O)CC[C@H](C)[C@@H](OC(=O)N2CCN(C)CC2)/C=C/[C@@H]1C [Compound 76] | −90.504% |  |  | −77.948% | 21.5 nM | 17.7 nM | 4.2 nM |  |  |  |  |  | 5.17 nM | 3.02 nM |  |  |  | 
CNS(=O)(=O)c1cccc(/C=C(\C)[C@H]2OC(=O)CC(O)CCC(C)[C@@H](OC(=O)N3CCN(C)CC3)/C=C/[C@@H]2C)c1 (stereo in doubt) [Compound 212, [(2S,3S,4E,6R,7R,10S)-10-hydroxy-3,7-dimethyl-2-[(E)-1-[3-(methylsulfamoyl)phenyl]prop-1-en-2-yl]-12-oxo-1-oxacyclododec-4-en-6-yl] 4-methylpiperazine-1-carboxylate] |  |  |  |  | > 25000 nM | 93.8 nM | 8.79 nM | −59.089% |  | −49.302% |  | 266.536 |  |  | 60.2 nM | 129 nM |  | 
C/C(=C\c1cc(F)cc(N2CCN(CCO)C(=O)C2)c1)[C@H]1OC(=O)C[C@H](O)CC[C@H](C)[C@@H](OC(=O)N2CCN(C)CC2)/C=C/[C@@H]1C [Compound 104] | −86.795% | 4.58 nM | 5.1 nM | −69.040% | 31.9 nM | 13.9 nM | 2.1 nM |  |  |  |  |  |  |  |  |  |  | 
C/C(=C\c1cc(F)cc(N2CC3CCC(C2)O3)c1)[C@H]1OC(=O)C[C@H](O)CC[C@H](C)[C@@H](OC(=O)N2CCN(C)CC2)/C=C/[C@@H]1C [Compound 32] | −69.289% | 6.53 nM | 10 nM | −74.701% | 19.5 nM | 16.2 nM | 3.24 nM |  |  |  |  |  |  |  |  |  |  | 
C/C(=C\c1cccc(S(=O)(=O)N2CC[C@@H](O)C2)c1)[C@H]1OC(=O)C[C@H](O)CC[C@H](C)[C@@H](OC(=O)N2CCN(C)CC2)/C=C/[C@@H]1C [Compound 199, [(2S,3S,4E,6R,7S,10R)-10-hydroxy-2-[(E)-1-[3-[(3R)-3-hydroxypyrrolidin-1-yl]sulfonylphenyl]prop-1-en-2-yl]-3,7-dimethyl-12-oxo-1-oxacyclododec-4-en-6-yl] 4-methylpiperazine-1-carboxylate] |  |  |  |  | 1820 nM | 47.2 nM | 8.99 nM | −95.445% |  | −52.026% |  | 38.638 |  |  | 33.8 nM | 22.9 nM |  | 
C/C(=C\c1cc(F)cc(N2CCOCC2)c1)[C@H]1OC(=O)C[C@H](O)CC[C@@](C)(O)C(OC(=O)N2CCN(C)CC2)/C=C/[C@@H]1C (stereo in doubt) [Compound 86, [(2S,3S,4E,6R,7R,10R)-2-[(E)-1-(3-fluoro-5-morpholin-4-ylphenyl)prop-1-en-2-yl]-7,10-dihydroxy-3,7-dimethyl-12-oxo-1-oxacyclododec-4-en-6-yl] 4-methylpiperazine-1-carboxylate] | −93.814% |  |  | −39.164% | 929 nM | 89.6 nM | 12.2 nM |  |  |  |  |  |  |  |  |  | 34.8 nM | 32.5 nM
C/C(=C\c1cc(F)cc(N(C)C2CCN(S(C)(=O)=O)CC2)c1)[C@H]1OC(=O)C[C@H](O)CC[C@H](C)[C@@H](OC(=O)N2CCN(C)CC2)/C=C/[C@@H]1C [Compound 174] | −80.529% | 6.04 nM | 3.86 nM | −92.525% | 13.1 nM | 10.7 nM | 3.14 nM |  |  |  |  |  |  |  |  |  |  | 
